Columns and labels:
Assay in all cases: relative viability (nuclei count vs DMSO), 5 days (fraction); higher = more cells survive
[1] = compound: CC[C@H](C)N1C=C(C2=C(C=C(C=C21)C3=CN=C(C=C3)N4CCNCC4)C(=O)NCC5=C(C=C(NC5=O)C)C)C [GSK126] + Cc1nc(Nc2ncc(C(=O)Nc3c(C)cccc3Cl)s2)cc(N2CCN(CCO)CC2)n1 [Dasatinib] (partner 0.075 µM)
Outline: (§1)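 Lung cancer cell lines, seeded in 1536-well plates, were treated the following day by pin tool with a single drug or with five library-drug doses (not always all listed) in √10 steps on top of a fixed anchor-drug dose. Cells were fixed and nuclei stained in one step after 5 days, and nuclei were counted. Relative viability is the nuclei count for treated wells divided by that for vehicle wells, reported as medians of duplicate plates.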

[2] = compound: C1CC(C1)(C(=O)O)C(=O)O.[NH2-].[NH2-].[Pt+2] [Carboplatin] + C[C@]1(O)C[C@@H](c2nc(-c3ccc4ccc(-c5ccccc5)nc4c3)c3c(N)nccn32)C1 [Linsitinib] (partner 1 µM)
Outline: as §1

[3] = compound: C1CC(C1)(C(=O)O)C(=O)O.[NH2-].[NH2-].[Pt+2] [Carboplatin] + O=C(c1cc(Cc2n[nH]c(=O)c3ccccc23)ccc1F)N1CCN(C(=O)C2CC2)CC1 [Olaparib] (partner 8 µM)
Outline: as §1

[4] = compound: CC[C@H](C)N1C=C(C2=C(C=C(C=C21)C3=CN=C(C=C3)N4CCNCC4)C(=O)NCC5=C(C=C(NC5=O)C)C)C [GSK126] + Cc1nc(NC(=O)N2CCC[C@H]2C(N)=O)sc1-c1ccnc(C(C)(C)C(F)(F)F)c1 [Alpelisib] (partner 2 µM)
Outline: as §1

## RERF-LC-KJ
[1]; first compound 0.08 µM
  relative viability: 0.883
[1]; first compound 0.253 µM
  relative viability: 0.886
[1]; first compound 0.8 µM
  relative viability: 0.756
[1]; first compound 2.53 µM
  relative viability: 0.717
[1]; first compound 8 µM
  relative viability: 0.703
[2]; first compound 0.08 µM
  relative viability: 0.913
[2]; first compound 0.253 µM
  relative viability: 0.895
[2]; first compound 0.8 µM
  relative viability: 0.97
[2]; first compound 2.53 µM
  relative viability: 0.807
[2]; first compound 8 µM
  relative viability: 0.726
[3]; first compound 0.08 µM
  relative viability: 1.03
[3]; first compound 0.253 µM
  relative viability: 0.866
[3]; first compound 0.8 µM
  relative viability: 0.884
[3]; first compound 2.53 µM
  relative viability: 0.657
[3]; first compound 8 µM
  relative viability: 0.416
[4]; first compound 0.08 µM
  relative viability: 0.881
[4]; first compound 0.253 µM
  relative viability: 0.803
[4]; first compound 0.8 µM
  relative viability: 0.697
[4]; first compound 2.53 µM
  relative viability: 0.845
[4]; first compound 8 µM
  relative viability: 0.734

## NCI-H2126
[1]; first compound 0.08 µM
  relative viability: 0.656
[1]; first compound 0.253 µM
  relative viability: 0.661
[1]; first compound 0.8 µM
  relative viability: 0.644
[1]; first compound 2.53 µM
  relative viability: 0.671
[1]; first compound 8 µM
  relative viability: 0.494
[2]; first compound 0.08 µM
  relative viability: 0.724
[2]; first compound 0.253 µM
  relative viability: 0.741
[2]; first compound 0.8 µM
  relative viability: 0.713
[2]; first compound 2.53 µM
  relative viability: 0.687
[2]; first compound 8 µM
  relative viability: 0.667
[3]; first compound 0.08 µM
  relative viability: 0.936
[3]; first compound 0.253 µM
  relative viability: 0.959
[3]; first compound 0.8 µM
  relative viability: 0.903
[3]; first compound 2.53 µM
  relative viability: 0.915
[3]; first compound 8 µM
  relative viability: 0.763
[4]; first compound 0.08 µM
  relative viability: 0.789
[4]; first compound 0.253 µM
  relative viability: 0.749
[4]; first compound 0.8 µM
  relative viability: 0.753
[4]; first compound 2.53 µM
  relative viability: 0.737
[4]; first compound 8 µM
  relative viability: 0.811

## LXF-289
[1]; first compound 0.08 µM
  relative viability: 0.31
[1]; first compound 0.253 µM
  relative viability: 0.223
[1]; first compound 0.8 µM
  relative viability: 0.19
[1]; first compound 2.53 µM
  relative viability: 0.257
[1]; first compound 8 µM
  relative viability: 0.358
[2]; first compound 0.08 µM
  relative viability: 0.992
[2]; first compound 0.253 µM
  relative viability: 1.02
[2]; first compound 0.8 µM
  relative viability: 0.912
[2]; first compound 2.53 µM
  relative viability: 0.939
[2]; first compound 8 µM
  relative viability: 0.926
[3]; first compound 0.08 µM
  relative viability: 1.05
[3]; first compound 0.253 µM
  relative viability: 1.1
[3]; first compound 0.8 µM
  relative viability: 1.08
[3]; first compound 2.53 µM
  relative viability: 1.05
[3]; first compound 8 µM
  relative viability: 0.996
[4]; first compound 0.08 µM
  relative viability: 1.1
[4]; first compound 0.253 µM
  relative viability: 1.05
[4]; first compound 0.8 µM
  relative viability: 1.02
[4]; first compound 2.53 µM
  relative viability: 1.01
[4]; first compound 8 µM
  relative viability: 1.02

## BEN
[1]; first compound 0.08 µM
  relative viability: 0.3
[1]; first compound 0.253 µM
  relative viability: 0.31
[1]; first compound 0.8 µM
  relative viability: 0.295
[1]; first compound 2.53 µM
  relative viability: 0.309
[1]; first compound 8 µM
  relative viability: 0.325
[2]; first compound 0.08 µM
  relative viability: 1.01
[2]; first compound 0.253 µM
  relative viability: 1.05
[2]; first compound 0.8 µM
  relative viability: 0.722
[2]; first compound 2.53 µM
  relative viability: 0.748
[2]; first compound 8 µM
  relative viability: 0.777
[3]; first compound 0.08 µM
  relative viability: 1.21
[3]; first compound 0.253 µM
  relative viability: 1.12
[3]; first compound 0.8 µM
  relative viability: 1.11
[3]; first compound 2.53 µM
  relative viability: 0.837
[3]; first compound 8 µM
  relative viability: 0.596
[4]; first compound 0.08 µM
  relative viability: 1.1
[4]; first compound 0.253 µM
  relative viability: 0.996
[4]; first compound 0.8 µM
  relative viability: 1.04
[4]; first compound 2.53 µM
  relative viability: 1.16
[4]; first compound 8 µM
  relative viability: 0.734

## NCI-H1993
[1]; first compound 0.08 µM
  relative viability: 0.701
[1]; first compound 0.253 µM
  relative viability: 0.598
[1]; first compound 0.8 µM
  relative viability: 0.375
[1]; first compound 2.53 µM
  relative viability: 0.703
[1]; first compound 8 µM
  relative viability: 0.646
[2]; first compound 0.08 µM
  relative viability: 0.773
[2]; first compound 0.253 µM
  relative viability: 0.798
[2]; first compound 0.8 µM
  relative viability: 0.779
[2]; first compound 2.53 µM
  relative viability: 0.817
[2]; first compound 8 µM
  relative viability: 0.701
[3]; first compound 0.08 µM
  relative viability: 0.854
[3]; first compound 0.253 µM
  relative viability: 1.22
[3]; first compound 0.8 µM
  relative viability: 0.993
[3]; first compound 2.53 µM
  relative viability: 0.923
[3]; first compound 8 µM
  relative viability: 0.706
[4]; first compound 0.08 µM
  relative viability: 0.632
[4]; first compound 0.253 µM
  relative viability: 0.72
[4]; first compound 0.8 µM
  relative viability: 0.773
[4]; first compound 2.53 µM
  relative viability: 0.748
[4]; first compound 8 µM
  relative viability: 0.661

## SW 1573
[1]; first compound 0.08 µM
  relative viability: 0.709
[1]; first compound 0.253 µM
  relative viability: 0.659
[1]; first compound 0.8 µM
  relative viability: 0.515
[1]; first compound 2.53 µM
  relative viability: 0.479
[1]; first compound 8 µM
  relative viability: 0.524
[2]; first compound 0.08 µM
  relative viability: 0.757
[2]; first compound 0.253 µM
  relative viability: 0.621
[2]; first compound 0.8 µM
  relative viability: 0.642
[2]; first compound 2.53 µM
  relative viability: 0.738
[2]; first compound 8 µM
  relative viability: 0.557
[3]; first compound 0.08 µM
  relative viability: 0.579
[3]; first compound 0.253 µM
  relative viability: 0.552
[3]; first compound 0.8 µM
  relative viability: 0.477
[3]; first compound 2.53 µM
  relative viability: 0.493
[3]; first compound 8 µM
  relative viability: 0.234
[4]; first compound 0.08 µM
  relative viability: 0.725
[4]; first compound 0.253 µM
  relative viability: 0.811
[4]; first compound 0.8 µM
  relative viability: 0.819
[4]; first compound 2.53 µM
  relative viability: 0.773
[4]; first compound 8 µM
  relative viability: 0.786

## NCI-H520
[1]; first compound 0.08 µM
  relative viability: 0.184
[1]; first compound 0.253 µM
  relative viability: 0.172
[1]; first compound 0.8 µM
  relative viability: 0.185
[1]; first compound 2.53 µM
  relative viability: 0.19
[1]; first compound 8 µM
  relative viability: 0.238
[2]; first compound 0.08 µM
  relative viability: 0.997
[2]; first compound 0.253 µM
  relative viability: 1.09
[2]; first compound 0.8 µM
  relative viability: 1.02
[2]; first compound 2.53 µM
  relative viability: 0.943
[2]; first compound 8 µM
  relative viability: 0.784
[3]; first compound 0.08 µM
  relative viability: 0.408
[3]; first compound 0.253 µM
  relative viability: 0.253
[3]; first compound 0.8 µM
  relative viability: 0.328
[3]; first compound 2.53 µM
  relative viability: 0.313
[3]; first compound 8 µM
  relative viability: 0.287
[4]; first compound 0.08 µM
  relative viability: 0.946
[4]; first compound 0.253 µM
  relative viability: 0.758
[4]; first compound 0.8 µM
  relative viability: 0.931
[4]; first compound 2.53 µM
  relative viability: 0.864
[4]; first compound 8 µM
  relative viability: 0.783

## LCLC-97TM1
[1]; first compound 0.08 µM
  relative viability: 0.845
[1]; first compound 0.253 µM
  relative viability: 0.922
[1]; first compound 0.8 µM
  relative viability: 0.918
[1]; first compound 2.53 µM
  relative viability: 0.822
[1]; first compound 8 µM
  relative viability: 0.897
[2]; first compound 0.08 µM
  relative viability: 0.177
[2]; first compound 0.8 µM
  relative viability: 0.17
[2]; first compound 2.53 µM
  relative viability: 0.195
[2]; first compound 8 µM
  relative viability: 0.192
[3]; first compound 0.08 µM
  relative viability: 0.334
[3]; first compound 0.253 µM
  relative viability: 0.524
[3]; first compound 0.8 µM
  relative viability: 0.353
[3]; first compound 2.53 µM
  relative viability: 0.506
[3]; first compound 8 µM
  relative viability: 0.332
[4]; first compound 0.08 µM
  relative viability: 0.254
[4]; first compound 0.8 µM
  relative viability: 0.22
[4]; first compound 2.53 µM
  relative viability: 0.374
[4]; first compound 8 µM
  relative viability: 0.217

## HCC-827
[1]; first compound 0.08 µM
  relative viability: 0.333
[1]; first compound 0.253 µM
  relative viability: 0.275
[1]; first compound 0.8 µM
  relative viability: 0.401
[1]; first compound 2.53 µM
  relative viability: 0.396
[1]; first compound 8 µM
  relative viability: 0.287
[2]; first compound 0.08 µM
  relative viability: 1.04
[2]; first compound 0.253 µM
  relative viability: 0.891
[2]; first compound 0.8 µM
  relative viability: 0.857
[2]; first compound 2.53 µM
  relative viability: 0.936
[2]; first compound 8 µM
  relative viability: 0.955
[3]; first compound 0.08 µM
  relative viability: 0.61
[3]; first compound 0.253 µM
  relative viability: 0.651
[3]; first compound 0.8 µM
  relative viability: 0.639
[3]; first compound 2.53 µM
  relative viability: 0.593
[3]; first compound 8 µM
  relative viability: 0.564
[4]; first compound 0.08 µM
  relative viability: 1.06
[4]; first compound 0.253 µM
  relative viability: 1
[4]; first compound 0.8 µM
  relative viability: 1.03
[4]; first compound 2.53 µM
  relative viability: 0.997
[4]; first compound 8 µM
  relative viability: 0.982

## NCI-H1975
[1]; first compound 0.08 µM
  relative viability: 0.389
[1]; first compound 0.253 µM
  relative viability: 0.366
[1]; first compound 0.8 µM
  relative viability: 0.375
[1]; first compound 2.53 µM
  relative viability: 0.355
[1]; first compound 8 µM
  relative viability: 0.291
[2]; first compound 0.08 µM
  relative viability: 0.894
[2]; first compound 0.253 µM
  relative viability: 0.986
[2]; first compound 0.8 µM
  relative viability: 0.999
[2]; first compound 2.53 µM
  relative viability: 1.02
[2]; first compound 8 µM
  relative viability: 0.903
[3]; first compound 0.08 µM
  relative viability: 0.961
[3]; first compound 0.253 µM
  relative viability: 0.79
[3]; first compound 0.8 µM
  relative viability: 0.735
[3]; first compound 2.53 µM
  relative viability: 0.747
[3]; first compound 8 µM
  relative viability: 0.747
[4]; first compound 0.08 µM
  relative viability: 0.741
[4]; first compound 0.253 µM
  relative viability: 0.649
[4]; first compound 0.8 µM
  relative viability: 0.607
[4]; first compound 2.53 µM
  relative viability: 0.643
[4]; first compound 8 µM
  relative viability: 0.616

From the supplement of paper PMC10307832
